Experimental data from PubChem BioAssay AID2060504 (Molecular Pharmacology Branch, DTP, NCI, 2025).

System: 636577-100-R-J1-PDC complex spheroid viability
Experiment: Anticancer human tumor 636577-100-R-J1-PDC patient-derived endometrial adenocarcinoma cell line growth inhibition [GQUAD]
Conditions: for IC50: curve of first compound; for viability, T/C: stronger effect = lower value
Procedure, shortened: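 Multi-cell-type spheroids of tumor cells with HUVEC and mesenchymal stem cells, treated with drug combinations. Concentrations descend in half-log steps from near clinical Cmax, or from 10 microM where Cmax is unknown; viability read-out.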

[1] = second compound 0.0316 µM, first compound 0.0316 µM
[2] = second compound 0.0316 µM, first compound 0.1 µM
[3] = second compound 0.0316 µM, first compound 0.316 µM
[4] = second compound 0.0316 µM, first compound 1 µM
[5] = second compound 0.0316 µM, first compound 3.16 µM
[6] = second compound 0.0316 µM, first compound 10 µM
[7] = second compound 0.1 µM, first compound 0.0316 µM
[8] = second compound 0.1 µM, first compound 0.1 µM
[9] = second compound 0.1 µM, first compound 0.316 µM
[10] = second compound 0.1 µM, first compound 1 µM
[11] = second compound 0.1 µM, first compound 3.16 µM
[12] = second compound 0.1 µM, first compound 10 µM
[13] = second compound 0.316 µM, first compound 0.0316 µM
[14] = second compound 0.316 µM, first compound 0.1 µM
[15] = second compound 0.316 µM, first compound 0.316 µM
[16] = second compound 0.316 µM, first compound 1 µM
[17] = second compound 0.316 µM, first compound 3.16 µM
[18] = second compound 0.316 µM, first compound 10 µM
[19] = second compound 1 µM, first compound 0.0316 µM
[20] = second compound 1 µM, first compound 0.1 µM
[21] = second compound 1 µM, first compound 0.316 µM
[22] = second compound 1 µM, first compound 1 µM
[23] = second compound 1 µM, first compound 3.16 µM
[24] = second compound 1 µM, first compound 10 µM
[25] = second compound 3.16 µM, first compound 0.0316 µM
[26] = second compound 3.16 µM, first compound 0.1 µM
[27] = second compound 3.16 µM, first compound 0.316 µM
[28] = second compound 3.16 µM, first compound 1 µM
[29] = second compound 3.16 µM, first compound 3.16 µM
[30] = second compound 3.16 µM, first compound 10 µM
[31] = second compound 10 µM, first compound 0.0316 µM
[32] = second compound 10 µM, first compound 0.1 µM
[33] = second compound 10 µM, first compound 0.316 µM
[34] = second compound 10 µM, first compound 1 µM
[35] = second compound 10 µM, first compound 3.16 µM
[36] = second compound 10 µM, first compound 10 µM
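Also: viability read after seven days of drug exposure.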
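For viability, T/C in this document: luminescence signal used as a proxy for viable cells; 100% = DMSO vehicle control wells.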

**Q.** What does the source list for `CC(=O)O[C@H]1C(=O)[C@@]2(C)[C@H]([C@H](OC(=O)c3ccccc3)[C@]3(O)C[C@H](OC(=O)[C@H](O)[C@@H](NC(=O)c4ccccc4)c4ccccc4)C(C)=C1C3(C)C)[C@]1(OC(C)=O)CO[C@@H]1C[C@@H]2O` + CN(C)c1ccc(Nc2c3ccc(NC(=O)CCN4CCCC4)cc3nc3cc(NC(=O)CCN4CCCC4)ccc23)cc1?
**A.** IC50 (second compound 0.0316 µM): < 31.6 nM; IC50 (second compound 0.1 µM): < 31.6 nM; IC50 (second compound 0.316 µM): < 31.6 nM; IC50 (second compound 1 µM): < 31.6 nM; IC50 (second compound 3.16 µM): < 31.6 nM; IC50 (second compound 10 µM): < 31.6 nM; viability, T/C [1]: 20.1%; viability, T/C [2]: 12.8%; viability, T/C [3]: 13.3%; viability, T/C [4]: 11.8%; viability, T/C [5]: 11.5%; viability, T/C [6]: 10.8%; viability, T/C [7]: 18.8%; viability, T/C [8]: 13.5%; viability, T/C [9]: 11.4%; viability, T/C [10]: 8.93%; viability, T/C [11]: 9.82%; viability, T/C [12]: 8.97%; viability, T/C [13]: 15.9%; viability, T/C [14]: 12.3%; viability, T/C [15]: 10.4%; viability, T/C [16]: 12.6%; viability, T/C [17]: 9.5%; viability, T/C [18]: 10.1%; viability, T/C [19]: 15.9%; viability, T/C [20]: 12.8%; viability, T/C [21]: 12.5%; viability, T/C [22]: 11.6%; viability, T/C [23]: 10%; viability, T/C [24]: 10.4%; viability, T/C [25]: 16.2%; viability, T/C [26]: 12.7%; viability, T/C [27]: 13.4%; viability, T/C [28]: 11.6%; viability, T/C [29]: 11.8%; viability, T/C [30]: 11.2%; viability, T/C [31]: 4.59%; viability, T/C [32]: 3.8%; viability, T/C [33]: 2.57%; viability, T/C [34]: 3.21%; viability, T/C [35]: 3.16%; viability, T/C [36]: 2.15%

**Q.** What does the source list for `COc1cc(C2c3cc4c(cc3C(OC3OC5COC(C)OC5C(O)C3O)C3COC(=O)C23)OCO4)cc(OC)c1O` (centres undefined) + CN(C)c1ccc(Nc2c3ccc(NC(=O)CCN4CCCC4)cc3nc3cc(NC(=O)CCN4CCCC4)ccc23)cc1?
**A.** IC50 (second compound 0.0316 µM): 65.1 nM; IC50 (second compound 0.1 µM): 46.7 nM; IC50 (second compound 0.316 µM): 46.9 nM; IC50 (second compound 1 µM): 32.4 nM; IC50 (second compound 3.16 µM): < 31.6 nM; IC50 (second compound 10 µM): < 31.6 nM; viability, T/C [1]: 77.5%; viability, T/C [2]: 33.3%; viability, T/C [3]: 20.7%; viability, T/C [4]: 17.2%; viability, T/C [5]: 15.7%; viability, T/C [6]: 13.8%; viability, T/C [7]: 61.4%; viability, T/C [8]: 27.9%; viability, T/C [9]: 18.8%; viability, T/C [10]: 19%; viability, T/C [11]: 18.5%; viability, T/C [12]: 14.6%; viability, T/C [13]: 57%; viability, T/C [14]: 37.1%; viability, T/C [15]: 22.3%; viability, T/C [16]: 17.7%; viability, T/C [17]: 15.7%; viability, T/C [18]: 12.9%; viability, T/C [19]: 50.4%; viability, T/C [20]: 30.6%; viability, T/C [21]: 18.5%; viability, T/C [22]: 20.1%; viability, T/C [23]: 16.2%; viability, T/C [24]: 13.8%; viability, T/C [25]: 27.6%; viability, T/C [26]: 20.5%; viability, T/C [27]: 19.6%; viability, T/C [28]: 17.4%; viability, T/C [29]: 16.8%; viability, T/C [30]: 13.1%; viability, T/C [31]: 5.34%; viability, T/C [32]: 4.62%; viability, T/C [33]: 4.08%; viability, T/C [34]: 4.02%; viability, T/C [35]: 2.93%; viability, T/C [36]: 2.35%
